Article PMC7647782, “Cytotoxic, Antioxidant, and Metabolic Enzyme Inhibitory Activities of Euphorbia cyparissias Extracts” (Oxidative Medicine and Cellular Longevity, 2020)
In brackets after ≈: the same amount, converted by molar mass. Values belong to the molecule of their own block, whether it stands above or below them.

Legend:
β-glucosidase = assay: β-Glucosidase activity inhibition; assay type: biochemical
Protocol: [20], respectively. […] The enzymes β-glucosidase, α-amylase, and XO were purchased from Sigma-Aldrich (St. Louis, MO, USA). The β-glucosidase activity was determined by measuring the 4-nitrophenol […] (4-NPGP) product. […] Then, the mixture was incubated with color reagent NPGP (180 μL) for more 15 min at 37°C. […] The activity was evaluated by measuring absorbance at 405 nm with a microplate reader. The same equation used to measure α-amylase activity was used to measure that of β-glucosidase.

[1] = DPPH radical scavenging assay
Protocol: In every sample of E. cyparissias extract, the antioxidant activity was evaluated by using the DPPH radical scavenging and reducing power assays as previously described in the literature. To measure DPPH activity, a sample of 0.5 mL for each concentration was mixed with an equal volume of DPPH ethanolic solution and incubated in darkness for 1 h at ambient temperature. The activity was determined by comparing the absorbance at 519 nm of DPPH radicals to that of the control (containing all reagents except the extract).

SPLA2-IB = assay: Phospholipase activity inhibition, stingray PLA2-IB; assay type: biochemical; details: stingray group IB phospholipase
Protocol: The phospholipase activities were measured based on the De Araújo and Radvanyi method [24]. The inhibitory effect of various extracts was determined using samples of dromedary, stingray, and porcine digestive group IB phospholipases (PLA2-IB). A 10 μL sample of ethanolic or aqueous extract was mixed with 10 μL of PLA2-GIB and preincubated for 20 min at room temperature. The mixture was added to 1 mL of the substrate, which was composed of lecithin (3.5 mM) solubilized in 100 mM NaCl, 3 mM sodium taurodeoxycholate, 10 mM CaCl2, and 0.055 mM red phenol at a pH of 7.6. […] The inhibition percentage was calculated by measuring residual activity compared to negative control assay (absence of extract). The IC50 values were determined from the curve.
Values represent the mean ± SD of triplicate measurements.

dromedary lipase (DrPL) = assay: Lipase activity inhibition, dromedary lipase; assay type: biochemical; details: mean ± SD of triplicate
From the text: Dromedary (DrPlA2-IB), porcine (PPPlA2-IB), and stingray group IB phospholipases (SPLA2-IB) were purified and prepared as described in our previous works and De Haas et al., respectively. Dromedary (DrPL), stingray (SPL), and porcine (PPL) lipases were also purified according to protocols optimized in previous works. The enzymes β-glucosidase, α-amylase, and XO were purchased from Sigma-Aldrich (St. Louis, MO, USA).
The inhibitory effect of ethanolic and aqueous extracts of E. cyparissias on dromedary, stingray, and porcine lipase activities were investigated at different concentrations ranging from 0 to 100 μg/mL. The assay was carried out by incubating 12 IU of enzymes (50 μL) with 10 μL of extract. A positive control using commercial orlistat (Xenical, Hoffmann-La Roche) was run in parallel in the same conditions. Inhibition of lipase activities was expressed as the percentage of residual activity after incubation with Euphorbia extracts compared to the negative control ([…]). Lipase activities were measured using tributyrin as a substrate under the optimal conditions for each enzyme, as previously described. The IC50 values correspond to the half maximal inhibitory concentration.
The activities of these lipases were measured using the pH-stat technique on olive oil emulsion at optimal conditions for enzyme activity. […]

chymotrypsin = chymotrypsin (Bos taurus, UniProt P00766); assay: Protease activity inhibition, chymotrypsin; assay type: biochemical; details: unit as in head of Table 4
Protocol: (§1) The trypsin and chymotrypsin activity inhibition was performed as described by Kunitz. An aliquot of 1 mL of ethanolic or water extract was incubated for 15 min at 37°C with an equal volume of the enzyme. The mixture was then incubated for 30 min at 37°C with 2 mL of 2% casein as the substrate. The reaction was stopped by adding 2.5 mL of 5% trichloroacetic acid (TCA). The activity was determined by measuring the absorbance of the mixture at 280 nm, after 15 min of centrifugation at 15 000 rpm. Ethanol was used as a negative control and Bowman-Birk Inhibitor (BBI) as a positive control. The protease activity inhibition was also expressed as inhibition percentage, which was determined by comparing the results with those of a control experiment.

trypsin = biological target: T1, trypsin (Bos taurus, UniProt P00760); assay: Protease activity inhibition, trypsin; assay type: biochemical; details: unit as in head of Table 4
T1 construct: gene PRSS1
T1 sequence (P00760 24-246): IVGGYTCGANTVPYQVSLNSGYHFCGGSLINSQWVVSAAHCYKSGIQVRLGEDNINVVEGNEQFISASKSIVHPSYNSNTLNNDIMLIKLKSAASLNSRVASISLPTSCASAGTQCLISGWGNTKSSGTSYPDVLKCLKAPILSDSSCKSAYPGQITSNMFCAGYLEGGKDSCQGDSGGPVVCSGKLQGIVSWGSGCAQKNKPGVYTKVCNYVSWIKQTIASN
Protocol: as §1

Molecule: Cc1cc(C(C)(C)C)c(O)c(C(C)(C)C)c1 [BHT, butylated hydroxytoluene]
DPPH scavenging activity ([1]; at a concentration of 1 mg/mL): 95.3 ± 0.4%
DPPH IC50 ([1]; from Figure 5(b), unit as printed for BHT): ~54 mg/L

Molecule: CC1(C)CC[C@]2(C(=O)O)CC[C@]3(C)C(=CC[C@@H]4[C@@]5(C)CC[C@H](O)C(C)(C)[C@@H]5CC[C@]43C)[C@@H]2C1 [Oleanolic acid, oleanolic acid]
IC50 SPLA2-IB (SPLA2-IB): 82.8 ± 5.7 mg/L (≈ 181 µM)

Molecule: CCCCCCCCCCC[C@@H](C[C@@H]1OC(=O)[C@H]1CCCCCC)OC(=O)[C@H](CC(C)C)NC=O [Orlistat, orlistat]
IC50 DrPL (dromedary lipase (DrPL)): 97.2 ± 2.5 mg/L (≈ 196 µM)

Now from value to molecule:

IC50 β-Glucosidase (β-glucosidase): 26.2 ± 2.5 mg/L (≈ 40.6 µM)
Molecule: C[C@H]1O[C@H](O[C@H]2[C@H](O)[C@@H](O)[C@@H](O[C@H]3[C@H](O)[C@@H](O)C(O)O[C@@H]3CO)O[C@@H]2CO)[C@H](O)[C@@H](O)[C@@H]1N[C@H]1C=C(CO)[C@@H](O)[C@H](O)[C@H]1O (stereo partly shown) [Acarbose]

IC50 Chymotrypsin (chymotrypsin): 0.0108 ± 0.0004 mg/L
Molecule: BBI: Bowman-Birk Inhibitor, positive control for trypsin and chymotrypsin inhibition

IC50 Trypsin (trypsin): 0.0115 ± 0.0004 mg/L
B1: BBI: Bowman-Birk Inhibitor, positive control for trypsin and chymotrypsin inhibition (protein)
chain: DDESSKPCCDQCACTKSNPPQCRCSDMRLNSCHSACKSCICALSYPAQCFCVDITDFCYEPCKPSEDDKEN
modifications: seven intrachain disulfides; Check residues are the known reactive sites Lys16 and Leu43 in mat
